Experimental findings from PMC12866823, “The Pivotal Role of GR‐CAR Pathway in Fetal Programming of Hepatic Cytochrome P450 3A Alteration in Adulthood” (Advanced Science, 2025) are described below.

The subject of series [1] is bone marrow mesenchymal stem cells hepatoid differentiated cell (BHDC). Description: Treatment of BHDC: mRNA, protein, ChIP-PCR and CoIP readouts. Conditions: for interaction between GR and P300/CBP (co-immunoprecipitation): 500 x 10^-9 M DEX or 1200 x 10^-9 M CORT; for gene and protein expression of P300/CBP, binding of GR-P300/CBP to CAR promoter, acetylation levels of H3K9 and H3K27: dose-dependent. In kind it is cell-based, rat. As for the experimental part: Protocols for preparing BMSCs and the hepatoid‐differentiated cells (BHDCs) were based on our prior study.^[ [98] ^] BMSCs were harvested from PW3 male rats and cultured at a density of 4 × 10^5 cells per well in six‐well plates with growth medium (αMEM with 10% fetal bovine serum (FBS), […] streptomycin, and 100 U mL^−1 penicillin).
All primers are listed in Table S2 (Supporting Information).
Results were quantified using Image J Launcher.
Cells were cross‐linked with 1% formaldehyde at room temperature, and glycine (final concentration 125 × 10^−3 M) was added to terminate the reaction.^[ [105] ^] The suspensions were sonicated to obtain 200‐800 bp DNA fragments, and then were incubated with Agarose‐protein A/G beads and divided into multiple portions. Corresponding antibodies (H3K9ac, H3K14ac, H3K27ac, H3K4me2, H3K27me3, GR, and CAR) and IgG were added and shaken overnight at 4 °C for immunoprecipitation, followed by the addition of 200 µg mL^−1 proteinase K at 65 °C overnight. DNA was isolated from each immunoprecipitation and subjected to RT‐qPCR analysis. The Jaspar database was consulted to query gene transcription binding sites.^[ [107] ^] Primers for amplification of multiple regions of the CAR promoter were designed using the UCSC Genome Browser (http://genome.ucsc.edu/) and Primer 3 Input Browser (http://primer3.ut.ee/). The primer sequences are listed in Table S4 (Supporting Information). Data from RT‐qPCR were used to calculate the abundance of proteins enriched in the promoters of each gene using the following formula: IP/input = 100 × 2^Ct input DNA – Ct IP DNA.
Tissue and cell lysates were collected, and protein concentrations were quantified using a BCA protein quantification kit. Protein A agarose gel beads (20 to 40 µL) were washed 2 to 3 times with lysis buffer and centrifuged at 3000 rpm for 5 min each time. Between 500 and 1000 µL of homogenized lysis supernatant from tissues or cells were transferred to a clean EP tube, and 1–10 µL of specific primary antibody was added to incubate overnight at 4 °C. IgG from the same species served as a negative control. Subsequently, 20 µL of A/G agarose gel beads were added, and the mixture was incubated for 3‐4 h at 4 °C. After incubation, the sample was centrifuged at 1000 g for 5 min at 4 °C to collect the immunoprecipitated complexes; the mixture was then washed 3‐4 times with 1 mL ice‐cold IP lysate (without protease inhibitor) by centrifugation at 3000 g for 5 min. Following the final wash, 40 µL of 1 × SDS loading buffer containing mercaptoethanol was added, boiled for 10 min at 100 °C, centrifuged at 1000 g for 5 min at 4 °C, and 15–20 µL of supernatant was used for WB assay.

The test system of series [2] is rat fetal primary hepatocytes. In words: Treatment of rat fetal primary hepatocytes: mRNA and protein expression. Format: cell-based. The conditions noted are these: DEX 20-500 x 10^-9 M or CORT 300-1200 x 10^-9 M, concentration-dependent. As for the experimental part:
(§1) Cells and liver samples were subjected to RNA isolation using a TRIZOL reagent. Process of RNA extraction and cDNA preparation was according to our prior work.^[ [103] ^] qPCR was performed using the Cham Q TM Universal SYBR® qPCR Master Mix on the QuantStudio®5 Real‐Time PCR System (Thermo Scientific, Waltham, MA, USA) for detection. All primers are listed in Table S2 (Supporting Information). Target gene expression was standardized using housekeeping gene and computed using the 2^−ΔΔCt methodology. For the gene expression levels assayed in each tissue of fetal mice, n indicates a litter (with each n ranging from 11‐12).
(§2) Total protein was extracted from the liver and cells using RIPA lysis buffer, and protein concentration was determined using a bicinchoninic acid (BCA) assay. Nuclear proteins were extracted using the Nuclear Protein Extraction Kit (no. P0028, Beyotime Institute of Biotechnology, Shanghai, China).^[ [104] ^] To verify the purity of extracted cellular fractions, we examined the levels of cytoplasmic localization proteins (ACTB and GAPDH) and nuclear localization protein (H3) in cytoplasmic and nuclear samples, respectively. […] Details of the western blot procedure have been described previously.^[ [105] ^] […] Results were quantified using Image J Launcher.

Series [3] concerns GR. Description: Dual-luciferase assay of transcriptional function of GR on CAR. Format: cell-based, human. Conditions: with DEX treatment. As for the experimental part: The dual‐luciferase reporter plasmid of pTol2‐cmv‐Fluc‐bGH polyA‐EF1α‐Rluc‐polyA was synthesized by Tsingke company and worked as a positive control. Overlapping PCR was performed to generate insert of the target gene promoter base on HepG2 genomic DNA template. Employing Hifi assembly kit, promoter fragments were inserted into SpeI/NtoI site of reporter vector, and coding sequences were inserted into XbaI/XhoI site of pTol2‐EGFP‐polyA plasmid. 48 h after transfection, cells were collected for dual‐luciferase assay according to Promega luciferase kit instructions. The primers for overlap PCR are listed in Table S5 (Supporting Information).

The test system of series [4] is HepG2. In words: Treatment of HepG2 with hydrocortisone. Format: cell-based, human. As for the experimental part: as §1
as §2, with “Launcher. […]” for “Launcher.”

Series [5] has as its system LS174T. Description: Treatment of LS174T with hydrocortisone. In kind it is cell-based, human. As for the experimental part: as §1
as §2, with “Launcher. […]” for “Launcher.”

Setting [6] is: DEX 20-500 x 10^-9 M or CORT 300-1200 x 10^-9 M.
Where [7] appears, read: 500 x 10^-9 M DEX with 10 x 10^-6 M RU486 or 100 x 10^-9 M GR siRNA.
Setting [8] is: 0, 300, 600, 1200 nM, concentration-dependent.

SMILES strings stand for the structures.

For `C[C@]12C[C@H](O)[C@H]3[C@@H](CCC4=CC(=O)CC[C@@]43C)[C@@H]1CC[C@@H]2C(=O)CO` [CORT, corticosterone], in series [1], the “interaction between GR and P300/CBP (co-immunoprecipitation)” value was “significantly enhanced”. Moreover, the “CYP3A and CYP2B expression, gene and protein levels” value is “significantly induced CYP3A and CYP2B expression at both the gene and protein levels” in series [1] (DEX 20-500 x 10^-9 M or CORT 300-1200 x 10^-9 M, 24 h, concentration-dependent); “significantly induced CYP3A and CYP2B expression at both the gene and protein levels” in series [2]. The “gene and protein expression of P300/CBP, binding of GR-P300/CBP to CAR promoter, acetylation levels of H3K9 and H3K27” value in series [1] (setting [6]) is listed as “significantly induced”.

For `C[C@@H]1C[C@H]2[C@@H]3CCC4=CC(=O)C=C[C@]4(C)[C@@]3(F)[C@@H](O)C[C@]2(C)[C@@]1(O)C(=O)CO` [DEX, dexamethasone], the “interaction between GR and P300/CBP (co-immunoprecipitation)” value in series [1] is on record as “significantly enhanced”. In addition, the “gene and protein expression of P300/CBP, binding of GR-P300/CBP to CAR promoter, acetylation levels of H3K9 and H3K27” value in series [1] (setting [6]) is reported as “significantly induced”.

For the compound `C=C1[C@@H](O)[C@@H]2O[C@]3(CC[C@H](/C=C/[C@@H](C)[C@@H]4CC(C)=C[C@@]5(O[C@H](C[C@@](C)(O)C(=O)O)CC[C@H]5O)O4)O3)CC[C@H]2O[C@@H]1[C@@H](O)C[C@H](C)[C@H]1O[C@@]2(CCCCO2)CC[C@H]1C` [OA, okadaic acid], the “effect on DEX-enhanced total and nuclear protein levels of CAR” value in series [1] (10 x 10^-9 M OA with DEX) was “reversed”. Besides, in series [1] (10 x 10^-9 M OA with or without DEX), the “expression of downstream CYP3A and CYP2B” value is “significantly reduced the expression of downstream CYP3A and CYP2B with or without DEX incubation”.

For `CC#C[C@]1(O)CC[C@H]2[C@@H]3CCC4=CC(=O)CCC4=C3[C@@H](c3ccc(N(C)C)cc3)C[C@@]21C` [RU486, mifepristone], the “effect on GR protein nuclear translocation and CYPs expression induced by DEX” value in series [1] (10 x 10^-6 M with 500 x 10^-9 M DEX) was “significantly inhibited protein nuclear translocation of GR and expression of CYPs induced by DEX treatment”. Besides, in series [1] (setting [7]), the “effect on CAR induction by DEX” value is “suppressed”; the “effect on DEX induction of P300/CBP expression, P300/CBP binding to CAR promoter and H3K9/H3K27 acetylation” value is “reversed the induction of P300/CBP expression, the binding of P300/CBP to the CAR promoter, and the acetylation levels of H3K9 and H3K27 by DEX”. In series [3], the “effect on transcriptional activity of GR (on CAR) induced by DEX” value is recorded as “blocked transcriptional activity of GR induced by DEX”.

As to `C[C@]12CCC(=O)C=C1CC[C@@H]1[C@@H]2[C@@H](O)C[C@@]2(C)[C@H]1CC[C@]2(O)C(=O)CO` [hydrocortisone], the “expression of downstream genes” value in series [4] (setting [8]) and in series [5] (setting [8]) was “could significantly induce the expression of downstream genes” in each case. The “related indicators and nuclear translocation of GR and CAR” value in series [4] (1200 x 10^-9 M) and in series [5] (1200 x 10^-9 M) was “significantly increased” each time.
